Measurements published in the supplement of paper PMC10307832.

How the values were obtained:
Assay in all cases: relative viability (nuclei count vs DMSO), 5 days (fraction); higher = more cells survive
XMD13-2 + Navitoclax = compound: C1CC1C(=O)NC2=NNC3=C2C=CC(=C3)C4=CC(=CC=C4)C(=O)NC5CC5 [XMD13-2] + CC1(C)CCC(c2ccc(Cl)cc2)=C(CN2CCN(c3ccc(C(=O)NS(=O)(=O)c4ccc(N[C@H](CCN5CCOCC5)CSc5ccccc5)c(S(=O)(=O)C(F)(F)F)c4)cc3)CC2)C1 [Navitoclax] (partner 0.5 µM)
Summary of the method: (§1)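 Each reported value is a median over duplicate plates. It expresses relative viability: treated-well nuclei count divided by vehicle-well nuclei count. Lung cancer cell lines in 1536-well plates were dosed by pin tool a day after seeding, alone with one drug or with a fixed anchor-drug dose plus five library-drug doses (not always all listed) in √10 steps, and nuclei were counted after 5 days.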

XMD13-2 + OSI-027 = compound: C1CC1C(=O)NC2=NNC3=C2C=CC(=C3)C4=CC(=CC=C4)C(=O)NC5CC5 [XMD13-2] + COc1cccc2cc(-c3nc([C@H]4CC[C@H](C(=O)O)CC4)n4ncnc(N)c34)[nH]c12 [OSI-027] (partner 0.5 µM)
Summary of the method: as §1

ALW-II-49-7 + Alpelisib = compound: Cc1ccc(C(=O)Nc2cccc(C(F)(F)F)c2)cc1Nc1cncc(C(N)=O)c1 [ALW-II-49-7] + Cc1nc(NC(=O)N2CCC[C@H]2C(N)=O)sc1-c1ccnc(C(C)(C)C(F)(F)F)c1 [Alpelisib] (partner 2 µM)
Summary of the method: as §1

ALW-II-49-7 + Pemetrexed = compound: Cc1ccc(C(=O)Nc2cccc(C(F)(F)F)c2)cc1Nc1cncc(C(N)=O)c1 [ALW-II-49-7] + Nc1nc2[nH]cc(CCc3ccc(C(=O)N[C@@H](CCC(=O)O)C(=O)O)cc3)c2c(=O)[nH]1 [Pemetrexed] (partner 0.2 µM)
Summary of the method: as §1

Cell Line	relative viability (XMD13-2 + Navitoclax; first compound 0.05 µM)	relative viability (XMD13-2 + Navitoclax; first compound 0.1581 µM)	relative viability (XMD13-2 + Navitoclax; first compound 0.5 µM)	relative viability (XMD13-2 + Navitoclax; first compound 1.581 µM)	relative viability (XMD13-2 + Navitoclax; first compound 5 µM)	relative viability (XMD13-2 + OSI-027; first compound 0.05 µM)	relative viability (XMD13-2 + OSI-027; first compound 0.1581 µM)	relative viability (XMD13-2 + OSI-027; first compound 0.5 µM)	relative viability (XMD13-2 + OSI-027; first compound 1.581 µM)	relative viability (XMD13-2 + OSI-027; first compound 5 µM)	relative viability (ALW-II-49-7 + Alpelisib; first compound 0.08 µM)	relative viability (ALW-II-49-7 + Alpelisib; first compound 0.253 µM)	relative viability (ALW-II-49-7 + Alpelisib; first compound 0.8 µM)	relative viability (ALW-II-49-7 + Alpelisib; first compound 2.53 µM)	relative viability (ALW-II-49-7 + Alpelisib; first compound 8 µM)	relative viability (ALW-II-49-7 + Pemetrexed; first compound 0.08 µM)	relative viability (ALW-II-49-7 + Pemetrexed; first compound 0.253 µM)	relative viability (ALW-II-49-7 + Pemetrexed; first compound 0.8 µM)	relative viability (ALW-II-49-7 + Pemetrexed; first compound 2.53 µM)	relative viability (ALW-II-49-7 + Pemetrexed; first compound 8 µM)
HCC-827	0.962	1.02	1	0.978	0.898	0.911	0.747	0.708	0.753	0.675	0.949	1.08	0.945	0.94	0.897	0.275	0.259	0.173	0.176	0.25
HOP-62	1.18	1.07	1.19	1.05	1.04	0.998	0.896	0.783	0.895	0.792	1.05	1.13	1.14	0.499	0.955	0.313	0.35	0.322	0.307	0.243
LC-2-ad	0.772	0.503	0.519	0.368	0.375	0.86	0.78	0.972	0.723	0.67	0.911	0.884	0.847	0.892	0.864	0.249	0.258	0.273	0.229	0.267
LCLC-97TM1	0.475	0.456	0.278	0.409	0.227	0.612	0.404	0.603	0.433	0.445	0.245	0.245	0.296	0.195	0.269	0.147	0.161	0.176	0.16	0.148
LK-2	1.19	0.843	0.905	0.957	0.738	0.236	0.151	0.191	0.239	0.216	1.14	1.09	1.02	0.74	0.967	0.244	0.282	0.316		0.201
LOU-NH91	0.752	0.688	0.715	0.696	0.769	0.753	0.716	0.759	0.663	0.815	0.648	0.72	0.729	0.388	0.797	0.298	0.361	0.35		0.338
LU99A	0.927	0.741	0.811	0.805	0.523	0.312	0.273	0.264	0.302	0.29	0.491	0.527	0.481	0.482	0.532		0.19	0.163	0.172	0.184
LXF-289	0.965	0.956	0.988	0.914	0.93	0.874	0.761	0.829	0.697	0.867	1.07	1.01	1.01	1.17	1.08	0.822	0.869	0.958	1.05	0.959
NCI-H23	1.02	0.767	0.822	0.78	0.82	0.761	0.544	0.593	0.411	0.783	0.692	0.803	0.613	0.726	0.985	0.59	0.672	0.752	0.783	0.511
NCI-H322M	1.19	1.19	1.44	1.15	1.14	0.576	0.507	0.519	0.588	0.593	0.724	0.739	0.957	0.759	0.8	0.609	0.79	0.659	0.682	0.537
NCI-H441	0.93	0.685	0.715	0.615	0.762	0.682	0.777	0.578	0.485	0.588	0.854	0.771	0.768	0.48	0.591	0.27	0.25	0.26	0.234	0.211
NCI-H460	1.34	1.23	1.28	1.02	1.2	0.939	0.837	0.713	0.723	0.645	0.513	0.542	0.323	0.453	0.395	0.0507	0.0651	0.0651	0.0782	0.0738
NCI-H520	1.17	1.2	1.08	1.01	0.501	0.306	0.278	0.232	0.294	0.225	0.799	0.865		0.964	0.954	0.655	0.673	0.724	0.666	0.558
NCI-H596	0.99	0.975	0.917	0.898	1.15	0.776	0.673	0.715	0.79	0.985	0.443	0.513	0.497	0.469	0.438	0.449	0.47	0.469	0.503	0.444
NCI-H647	1.21	1.08	1.23	1.15	0.735	0.779	0.781	0.669	0.59	0.508	0.769	1.13	1.19	0.882	0.557	0.186	0.175	0.16	0.123	0.115
NCI-H838	1.26	1.16	1.13	1.22	1.18	0.432	0.402	0.339	0.398	0.437	0.847	1.13	1	1.13	0.987	0.237	0.272	0.243	0.258	0.25

Cell Line	relative viability (XMD13-2 + Navitoclax; first compound 0.05 µM)	relative viability (XMD13-2 + Navitoclax; first compound 0.1581 µM)	relative viability (XMD13-2 + Navitoclax; first compound 0.5 µM)	relative viability (XMD13-2 + Navitoclax; first compound 1.581 µM)	relative viability (XMD13-2 + Navitoclax; first compound 5 µM)	relative viability (XMD13-2 + OSI-027; first compound 0.05 µM)	relative viability (XMD13-2 + OSI-027; first compound 0.1581 µM)	relative viability (XMD13-2 + OSI-027; first compound 0.5 µM)	relative viability (XMD13-2 + OSI-027; first compound 1.581 µM)	relative viability (XMD13-2 + OSI-027; first compound 5 µM)	relative viability (ALW-II-49-7 + Alpelisib; first compound 0.08 µM)	relative viability (ALW-II-49-7 + Alpelisib; first compound 0.253 µM)	relative viability (ALW-II-49-7 + Alpelisib; first compound 0.8 µM)	relative viability (ALW-II-49-7 + Alpelisib; first compound 2.53 µM)	relative viability (ALW-II-49-7 + Alpelisib; first compound 8 µM)	relative viability (ALW-II-49-7 + Pemetrexed; first compound 0.08 µM)	relative viability (ALW-II-49-7 + Pemetrexed; first compound 0.253 µM)	relative viability (ALW-II-49-7 + Pemetrexed; first compound 0.8 µM)	relative viability (ALW-II-49-7 + Pemetrexed; first compound 2.53 µM)	relative viability (ALW-II-49-7 + Pemetrexed; first compound 8 µM)
NCI-H1355	0.971	0.941	0.904	0.899	0.89	0.48	0.413	0.394	0.382	0.387	0.696	0.867	0.832	0.679	0.645	0.964	1.13	1.01	1.04	1.07
NCI-H1395	1.25	1.16	1.23	1.11	1.1	0.684	0.757	0.653	0.633	0.647	1.22	1.1	1.04	0.307	1.09	0.894	0.984	1.18		0.621
NCI-H1437	1.12	1.09	1.09	1.05	1.09	0.958	0.929	0.885	0.873	0.985	0.949	1.01		0.901	0.959	0.324	0.328	0.345	0.311	0.243
NCI-H1651	1.28	1.04	1	1.2	0.947	0.813	0.716	0.768	0.747	0.778	1.01	0.832	0.746	0.919	0.835	0.5	0.631	0.615	0.574	0.441
NCI-H1666	0.886	1.03	0.881	0.905	0.92	0.869	0.839	0.862	0.814	0.817	1.05	1.07	0.853	0.951	0.868	0.783	0.944	0.831	0.847	0.785
NCI-H1734	1	0.883	0.881	0.8	0.741	0.683	0.554	0.647	0.502	0.447	0.645	0.774	0.657	0.694	0.577	0.427	0.448	0.428	0.404	0.443
NCI-H1755	1.03	0.985	1.07	1.01	0.986	0.798	0.699	0.797	0.576	0.775	0.931	0.965	0.909	0.807	0.818	0.456	0.48	0.4	0.416	0.403
NCI-H1792	0.746	0.591	0.715	0.491	0.886	0.772	0.813	0.696	0.914	0.669	0.512	0.459	0.586	0.504	0.473	0.561	0.531	0.446	0.857	0.602
NCI-H1793	0.48	0.394	0.485	0.426	0.509	0.404		0.255	0.277	0.271	0.717	0.673	0.752	0.716	0.884	1.05	0.806	1.08	0.868	0.734
NCI-H1915	0.801	0.781	0.806	0.835	0.853	0.756	0.591	0.645	0.548	0.595	1.1	1.13	1.08	0.978	0.731	0.451	0.546	0.49	0.457	0.375
NCI-H1944	1.08	1.05	1.08	1.11	1.17	0.499	0.395	0.362	0.471	0.43	0.817	0.836	0.807	0.916	0.941	0.6	0.597	0.611	0.582	0.537
NCI-H1975	1.17	1.28	1.01	1.02	1.18	0.829	0.776	0.824	0.786	0.774	0.534	0.62	0.641	0.662	0.485	0.312	0.306	0.266	0.296	0.244
NCI-H1993	0.911	0.834	0.884	0.845	0.673	0.448	0.5	0.511	0.558	0.432	0.691	0.644	0.671	0.72	0.688	0.61	0.515	0.631	0.591	0.64
NCI-H2009	1.22	1.15	1.22	1.14	1.21	0.69	0.563	0.815	0.634	0.66	1.12	1.09	1.12	0.957	0.825	0.971	1.14	0.955	0.751	0.749
NCI-H2023	1.01	1.03	0.893	0.968	1	0.58	0.36	0.4	0.357	0.341	0.66	0.575	0.657	0.641	0.677	0.235	0.23	0.237	0.214	0.242
